Read-outs that look alike come from different tables or passages of the source.
Experiments:
[1] = test system: U937; assay: Secondary dose-response HTS, Cell Titer Glo; assay type: cell-based, human; details: Homo sapiens, U-937
[2] = test system: CHRF288-11; assay: Secondary dose-response HTS, Cell Titer Glo; assay type: cell-based, human; details: Homo sapiens
[3] = test system: ML2; assay: Secondary dose-response HTS, Cell Titer Glo; assay type: cell-based, human; details: Homo sapiens, ML-2
[4] = test system: CMS; assay: Secondary dose-response HTS, Cell Titer Glo; assay type: cell-based, human; details: Homo sapiens
[5] = test system: panel of 8 AML cell lines; assay: Secondary dose-response HTS, whole panel; assay type: cell-based, human; details: secondary HTS (Supplementary Data 2)
[6] = test system: M07e; assay: Secondary dose-response HTS, Cell Titer Glo; assay type: cell-based, human; details: Homo sapiens, M-07e
[7] = test system: MLLr primary AML blast samples; assay: Ex vivo drug treatment of primary AML blasts on mesenchymal stromal cells; assay type: cell-based; details: Homo sapiens; primary blasts on MSC, 96 h, range over patient samples
[8] = test system: MOLM-13; assay: Secondary dose-response HTS, Cell Titer Glo; assay type: cell-based, human; details: Homo sapiens, MOLM-13
[9] = test system: ML-2; assay: cells; set-up: species or system AML cell lines (8); Secondary HTS, 10-point dose-response in triplicate, Cell Titer Glo viability, four-parameter fit EC50; details: Homo sapiens, ML-2, 72 h, read-out: ML-2
[10] = test system: U937; assay: cells; set-up: species or system AML cell lines (8); Secondary HTS, 10-point dose-response in triplicate, Cell Titer Glo viability, four-parameter fit EC50; details: Homo sapiens, U-937, 72 h, read-out: U937
[11] = test system: M07e; assay: cells; set-up: species or system AML cell lines (8); Secondary HTS, 10-point dose-response in triplicate, Cell Titer Glo viability, four-parameter fit EC50; details: M-07e, 72 h, read-out: M07e
[12] = test system: FLT3-ITD+ primary AML blast samples
[13] = test system: AMKL primary AML blast samples; assay: Ex vivo drug treatment of primary AML blasts on mesenchymal stromal cells; assay type: cell-based; details: Homo sapiens; primary blasts on MSC, 96 h
[14] = test system: MV4-11; assay: cells; set-up: species or system AML cell lines (8); Secondary HTS, 10-point dose-response in triplicate, Cell Titer Glo viability, four-parameter fit EC50; details: Homo sapiens, MV4-11, 72 h, read-out: MV4-11
[15] = test system: CMK; assay: cells; set-up: species or system AML cell lines (8); Secondary HTS, 10-point dose-response in triplicate, Cell Titer Glo viability, four-parameter fit EC50; details: Homo sapiens, CMK, 72 h, read-out: CMK
[16] = test system: CHRF288-11; assay: cells; set-up: species or system AML cell lines (8); Secondary HTS, 10-point dose-response in triplicate, Cell Titer Glo viability, four-parameter fit EC50; details: 72 h, read-out: CHRF288-11
[17] = test system: THP-1; assay type: cell-based; details: Homo sapiens, 72 h, Cell Titer Glo
[18] = test system: ML-2; assay type: cell-based; details: Homo sapiens, 72 h, Cell Titer Glo
[19] = test system: CMS; assay type: cell-based; details: Homo sapiens, 72 h, read-out: IC50 CMS
[20] = test system: MV4-11; assay: Secondary dose-response HTS, Cell Titer Glo; assay type: cell-based, human; details: Homo sapiens, MV4-11
[21] = test system: MOLM-13; assay type: cell-based; details: Homo sapiens, 72 h, Cell Titer Glo
[22] = test system: CHRF288-11; assay type: cell-based; details: Homo sapiens; 72 h, Cell Titer Glo; read-out: IC50 CHRF288-11
[23] = test system: U937; assay type: cell-based; details: Homo sapiens, U-937; 72 h, Cell Titer Glo
[24] = test system: MV4-11; assay type: cell-based; details: Homo sapiens, 72 h, Cell Titer Glo
[25] = test system: CMK; assay: Secondary dose-response HTS, Cell Titer Glo; assay type: cell-based, human; details: Homo sapiens, CMK
[26] = secondary high-throughput screen, U937, read-out: average effective concentration, U937
[27] = HTS, secondary high-throughput screen, CHRF288-11, read-out: average effective concentration, CHRF288-11
[28] = secondary high-throughput screen, read-out: average effective concentration, ML-2
[29] = HTS, secondary high-throughput screen, CMS, read-out: average effective concentration, CMS
[30] = secondary high-throughput screen, M07e, read-out: average effective concentration, M07e
[31] = secondary high-throughput screen, read-out: average effective concentration, MOLM-13
[32] = secondary high-throughput screen, read-out: average effective concentration, MV4-11
[33] = secondary high-throughput screen, read-out: average effective concentration, CMK
[34] = secondary HTS, 72 h, average of triplicate, read-out: EC50 U937
[35] = secondary HTS, 72 h, average of triplicate, read-out: EC50 MOLM-13
[36] = secondary HTS, 72 h, average of triplicate, read-out: EC50 MV4-11
[37] = secondary HTS, 72 h, average of triplicate, read-out: EC50 CHRF288-11
[38] = secondary HTS, 72 h, average of triplicate, read-out: EC50 CMS
[39] = secondary HTS, 72 h, average of triplicate, read-out: EC50 CMK
[40] = secondary HTS, 72 h, average of triplicate, read-out: EC50 M07e

SMILES: CON(C)C(=O)N1N=C(c2cc(F)ccc2F)S[C@@]1(CCCN)c1ccccc1 [ARRY-520, reference compound]
- EC50 [1, 26]: 1 nM
- EC50 [2, 27]: 1 nM
- EC50 [3, 28]: 1 nM
- EC50 [4, 29]: 1 nM
- active cell lines out of 8 in HTS [5]: 3/8
- EC50 [6, 30]: 1 nM

SMILES: COc1cc(Nc2ncc3c(n2)-c2ccc(Cl)cc2C(c2c(F)cccc2OC)=NC3)ccc1C(=O)O [Alisertib]
- IC50 [7]: 105 to 4320 nM
- EC50 [8, 31]: 8300 nM
- EC50 [9]: > 10000 nM
- EC50 [10]: > 10000 nM
- EC50 [11]: > 10000 nM
- IC50 [12]: 8.8 to 3190 nM
- EC50 [4, 29]: 4000 nM
- IC50 [13]: 441 nM
- EC50 [14]: > 10000 nM
- active cell lines out of 8 in HTS [5]: 4/8
- EC50 [15]: 2.1 nM
- EC50 [16]: > 10000 nM

SMILES: CC(=O)O[C@@]12CO[C@@H]1C[C@H](O)[C@@]1(C)C(=O)[C@H](O)C3=C(C)[C@@H](OC(=O)[C@H](O)[C@@H](NC(=O)OC(C)(C)C)c4ccccc4)C[C@@](O)([C@@H](OC(=O)c4ccccc4)[C@H]21)C3(C)C [Docetaxel, docetaxel, reference compound]
- EC50 [1, 26]: 1 nM
- IC50 [17]: 3.2 nM
- IC50 [18]: 1.5 nM
- EC50 [8, 31]: 1 nM
- IC50 [19]: 19.9 nM
- EC50 [20, 32]: 1 nM
- IC50 [21]: 2.2 nM
- IC50 [22]: 10.8 nM
- EC50 [2, 27]: 500 nM
- IC50 [23]: 2.1 nM
- EC50 ([4]; HTS, read-out: average effective concentration, CMS): 4.4 nM
- IC50 [24]: 3 nM
- EC50 ([25]; read-out: average effective concentration, CMK): 1 nM
- EC50 [6, 30]: 1 nM

SMILES: CC(=O)O[C@H]1C(=O)[C@@]2(C)[C@H]([C@H](OC(=O)c3ccccc3)[C@]3(O)C[C@H](OC(=O)[C@H](O)[C@@H](NC(=O)c4ccccc4)c4ccccc4)C(C)=C1C3(C)C)[C@]1(OC(C)=O)CO[C@@H]1C[C@@H]2O [Paclitaxel, paclitaxel]
- IC50 [17]: 5.4 nM
- IC50 [18]: 3.5 nM
- IC50 ([19]; Cell Titer Glo): 25.7 nM
- IC50 [21]: 3 nM
- IC50 [22]: 24.9 nM
- IC50 [23]: 2.5 nM
- IC50 [24]: 2.1 nM

SMILES: COc1cc(OC)c(/C=C/S(=O)(=O)Cc2ccc(OC)c(NCC(=O)O)c2)c(OC)c1 [rigosertib, reference compound]
- EC50 [1, 26]: 5 nM
- EC50 [8, 31]: 6 nM
- EC50 [2, 27]: 17 nM
- EC50 [3, 28]: 15 nM
- EC50 [4, 29]: 11 nM
- EC50 [25, 33]: 3.61 nM
- active cell lines out of 8 in HTS [5]: 7/8

SMILES: C/C=C1\NC(=O)[C@H]2CSSCC/C=C/[C@H](CC(=O)N[C@H](C(C)C)C(=O)N2)OC(=O)[C@H](C(C)C)NC1=O [Romidepsin, reference compound]
- IC50 [7]: 1.6 to 6 nM
- EC50 [1, 34]: 3 nM
- EC50 [1, 26]: 3.2 nM
- EC50 [8, 35]: 1 nM
- EC50 [8, 31]: 0.67 nM
- EC50 [20, 36]: 1 nM
- EC50 [20, 32]: 0.6 nM
- EC50 [2, 27]: 6.5 nM
- EC50 [2, 37]: 10 nM
- IC50 [12]: 3.8 to 13 nM
- EC50 ([3]; secondary HTS, 72 h, average of triplicate, read-out: EC50 ML2): 4 nM
- EC50 [3, 28]: 3.8 nM
- EC50 [4, 38]: 1 nM
- IC50 [13]: 5 nM
- EC50 [25, 39]: 10 nM
- EC50 [25, 33]: 8 nM
- EC50 [6, 40]: 2 nM
- EC50 ([6]; secondary high-throughput screen, […], read-out: average effective concentration, M07e): 1.7 nM

SMILES: C=CCn1c(=O)c2cnc(Nc3ccc(N4CCN(C)CC4)cc3)nc2n1-c1cccc(C(C)(C)O)n1 [MK-1775, reference compound]
- EC50 [1, 26]: 460 nM
- EC50 [8, 31]: 370 nM
- EC50 [20, 32]: 210 nM
- EC50 [2, 27]: 10000 nM
- EC50 [3, 28]: 210 nM
- EC50 [4, 29]: 630 nM
- IC50 [13]: > 10000 nM
- EC50 [25, 33]: 210 nM
- active cell lines out of 8 in HTS [5]: 7/8

SMILES: Nc1nc(Cl)nc2c1ncn2[C@@H]1O[C@H](CO)[C@@H](O)[C@@H]1F [Clofarabine, clofarabine, reference compound]
- EC50 [1, 34]: 90 nM
- EC50 [1, 26]: 88 nM
- IC50 [17]: 90 nM
- IC50 [18]: 173 nM
- EC50 [8, 35]: 50 nM
- EC50 [8, 31]: 47 nM
- IC50 ([19]; Cell Titer Glo): 80 nM
- EC50 [20, 36]: 150 nM
- IC50 [21]: 37 nM
- IC50 [22]: 332 nM
- EC50 [2, 37]: 370 nM
- IC50 [23]: 56 nM
- EC50 [4, 29]: 18 nM
- EC50 [4, 38]: 20 nM
- IC50 [24]: 71 nM
- EC50 [25, 39]: 5 nM
- EC50 [6, 40]: 10 nM
- EC50 [6, 30]: 13 nM

SMILES: CC[C@@H]1C(=O)N(C)c2cnc(Nc3ccc(C(=O)N[C@H]4CC[C@H](N5CCN(CC6CC6)CC5)CC4)cc3OC)nc2N1C(C)C [Volasertib, reference compound]
- IC50 [7]: 62 to 482 nM
- EC50 [1, 26]: 1 nM
- EC50 [20, 32]: 8 nM
- EC50 [2, 27]: 3200 nM
- IC50 [12]: 4.6 to 931 nM
- EC50 [3, 28]: 1 nM
- EC50 [4, 29]: 1400 nM
- IC50 [13]: 353 nM
- EC50 [25, 33]: 15 nM
- active cell lines out of 8 in HTS [5]: 7/8

SMILES: CCN(CCCOc1ccc2c(Nc3cc(CC(=O)Nc4cccc(F)c4)n[nH]3)ncnc2c1)CCOP(=O)(O)O [barasertib, reference compound]
- EC50 [1, 26]: 1 nM
- EC50 [8, 31]: 7 nM
- EC50 [20, 32]: 1 nM
- EC50 [3, 28]: 1 nM
- EC50 [25, 33]: 35 nM
- active cell lines out of 8 in HTS [5]: 3/8
